Test results as given in EP0055702B1, “Antithrombotic treatment” (priority 1980, dated 1982).

Columns and labels:
Type in all cases: biochemical
human plasma [1] = assay: Partial Thromboplastin Time, Example 4
Text: (§1) The evaluation procedure used is that described in "Human Blood Coagulation, Haemostasis and Thrombosis", edited by Rosemary Biggs, published by Blackwell Scientific Publications, Oxford, England (2nd Edition), pages 670-705, 1976. […]

F IX = target: T1, F IX (Homo sapiens, UniProt P00740); assay: Factor IX assay, Example 4; set-up: F IX: unit not given beside the values; details: for V IX: solution D; for V IX / F IX: Control 66
T1 construct: from tissue; host or cells: human plasma
Text: as §1

[2] = system: human, rabbit and rat plasma; assay: PTT (partial thromboplastin time) in plasma in vitro, Example 3; details: for PTT (seconds) Exp. 1 A / PTT (seconds) Exp. 2 A: active agent 0.5/ml, control
Text: Sodium, potassium and ammonium bisulphites are found to prolong PT and PTT in a dose-related fashion.
The evaluation procedure used is that described in "Human Blood Coagulation, Haemostasis and Thrombosis", edited by Rosemary Biggs, published by Blackwell Scientific Publications, Oxford, England (2nd Edition), pages 670-705, 1976.

F XI = target: T2, F XI (Homo sapiens, UniProt P03951); assay: Factor XI assay, Example 4; details: for F XI: Control 117
T2 construct: from tissue; host or cells: human plasma
Text: as §1

human plasma [3] = assay: Prothrombin Time, Example 4
Text: as §1

Fibrinogen = target: T3, Fibrinogen (Homo sapiens, UniProt P02671+P02675+P02679); assay: Fibrinogen assay, Example 4; details: Control 218; for Fibrogen: solution D
T3 construct: from tissue; host or cells: human plasma
T3 sequence (P02671 20-629 limits assumed): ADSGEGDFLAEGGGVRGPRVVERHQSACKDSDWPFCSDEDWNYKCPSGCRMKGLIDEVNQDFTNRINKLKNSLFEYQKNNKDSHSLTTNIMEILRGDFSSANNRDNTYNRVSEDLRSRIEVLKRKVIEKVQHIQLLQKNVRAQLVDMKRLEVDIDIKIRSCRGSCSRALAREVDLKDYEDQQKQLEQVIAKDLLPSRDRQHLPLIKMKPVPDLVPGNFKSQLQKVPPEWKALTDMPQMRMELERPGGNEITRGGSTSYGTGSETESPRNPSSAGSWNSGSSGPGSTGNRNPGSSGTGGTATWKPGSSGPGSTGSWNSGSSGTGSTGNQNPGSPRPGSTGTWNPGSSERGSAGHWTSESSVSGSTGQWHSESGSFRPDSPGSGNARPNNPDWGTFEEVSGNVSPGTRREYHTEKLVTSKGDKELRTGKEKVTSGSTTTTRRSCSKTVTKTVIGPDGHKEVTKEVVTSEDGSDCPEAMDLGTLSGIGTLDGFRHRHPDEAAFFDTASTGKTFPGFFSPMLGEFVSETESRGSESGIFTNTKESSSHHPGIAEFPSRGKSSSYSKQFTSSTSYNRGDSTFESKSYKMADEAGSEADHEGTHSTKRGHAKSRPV
T3 sequence (P02675 31-491): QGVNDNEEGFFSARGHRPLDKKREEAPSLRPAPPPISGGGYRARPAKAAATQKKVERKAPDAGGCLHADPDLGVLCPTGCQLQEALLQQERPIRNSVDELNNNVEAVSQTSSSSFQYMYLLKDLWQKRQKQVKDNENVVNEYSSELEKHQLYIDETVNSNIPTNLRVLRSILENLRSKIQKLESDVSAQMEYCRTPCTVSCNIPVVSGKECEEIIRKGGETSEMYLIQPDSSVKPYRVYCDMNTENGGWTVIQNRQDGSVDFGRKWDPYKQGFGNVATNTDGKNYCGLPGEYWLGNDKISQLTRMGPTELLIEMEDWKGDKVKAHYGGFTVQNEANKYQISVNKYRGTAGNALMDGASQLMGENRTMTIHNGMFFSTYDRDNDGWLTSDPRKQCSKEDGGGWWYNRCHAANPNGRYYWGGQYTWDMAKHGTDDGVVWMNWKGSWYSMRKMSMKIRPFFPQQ
T3 sequence (P02679 27-453): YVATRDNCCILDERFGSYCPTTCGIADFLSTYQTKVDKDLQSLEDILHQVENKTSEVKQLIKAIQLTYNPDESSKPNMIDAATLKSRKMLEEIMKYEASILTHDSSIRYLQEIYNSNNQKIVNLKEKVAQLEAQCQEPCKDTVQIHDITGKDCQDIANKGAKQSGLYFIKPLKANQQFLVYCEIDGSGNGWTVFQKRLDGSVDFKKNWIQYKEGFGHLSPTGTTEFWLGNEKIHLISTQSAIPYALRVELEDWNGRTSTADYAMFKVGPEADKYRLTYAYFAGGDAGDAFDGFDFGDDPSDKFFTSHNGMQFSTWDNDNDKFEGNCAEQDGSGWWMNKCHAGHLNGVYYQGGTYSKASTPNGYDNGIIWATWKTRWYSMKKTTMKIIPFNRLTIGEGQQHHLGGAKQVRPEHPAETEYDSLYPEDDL
Text: as §1

[4] = chemical grade sodium bisulphite 0.01 mg/ml
[5] = chemical grade sodium bisulphite 0.05 mg/ml
[6] = chemical grade sodium bisulphite 0.1 mg/ml
[7] = chemical grade sodium bisulphite 0.5 mg/ml
[8] = chemical grade sodium bisulphite 1.0 mg/ml
[9] = chemical grade sodium bisulphite 5.0 mg/ml

T1 sequence (P00740 47-461): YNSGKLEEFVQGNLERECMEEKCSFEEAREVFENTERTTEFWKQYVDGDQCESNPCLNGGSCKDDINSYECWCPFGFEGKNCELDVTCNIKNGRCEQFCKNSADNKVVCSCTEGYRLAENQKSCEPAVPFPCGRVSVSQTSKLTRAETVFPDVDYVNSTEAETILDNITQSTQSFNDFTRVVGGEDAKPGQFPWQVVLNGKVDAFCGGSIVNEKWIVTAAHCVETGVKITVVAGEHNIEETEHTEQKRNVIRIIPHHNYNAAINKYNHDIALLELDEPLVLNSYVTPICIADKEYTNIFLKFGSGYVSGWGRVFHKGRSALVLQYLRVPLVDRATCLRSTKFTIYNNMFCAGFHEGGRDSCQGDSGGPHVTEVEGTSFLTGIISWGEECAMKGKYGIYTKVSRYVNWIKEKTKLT
T2 sequence (P03951 19-625): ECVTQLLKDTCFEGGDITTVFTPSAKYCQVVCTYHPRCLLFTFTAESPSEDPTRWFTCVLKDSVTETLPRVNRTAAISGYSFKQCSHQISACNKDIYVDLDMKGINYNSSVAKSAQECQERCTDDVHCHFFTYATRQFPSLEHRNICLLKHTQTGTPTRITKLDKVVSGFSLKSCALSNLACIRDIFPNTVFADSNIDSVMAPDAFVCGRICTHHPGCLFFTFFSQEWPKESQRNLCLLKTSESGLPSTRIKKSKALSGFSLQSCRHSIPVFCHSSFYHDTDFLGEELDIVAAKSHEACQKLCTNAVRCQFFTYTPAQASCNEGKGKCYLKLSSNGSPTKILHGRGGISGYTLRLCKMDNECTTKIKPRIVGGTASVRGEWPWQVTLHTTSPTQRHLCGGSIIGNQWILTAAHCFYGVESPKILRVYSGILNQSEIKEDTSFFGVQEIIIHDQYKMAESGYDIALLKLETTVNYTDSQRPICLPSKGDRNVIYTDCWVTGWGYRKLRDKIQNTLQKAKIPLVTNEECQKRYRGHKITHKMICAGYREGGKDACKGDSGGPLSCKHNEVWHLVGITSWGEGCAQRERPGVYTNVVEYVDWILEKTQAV

Sodium bisulphite
PTT (human plasma [1]; Sodium bisulphite 0.01 mg/ml, solution D, Control 12.20): 12.33 s
PTT (human plasma [1]; Sodium bisulphite 0.05 mg/ml, solution D, Control 12.20): 12.43 s
PTT (human plasma [1]; Sodium bisulphite 0.1 mg/ml, solution D, Control 12.20): 12.85 s
PTT (human plasma [1]; Sodium bisulphite 0.5 mg/ml, solution D, Control 12.20): 15.43 s
PTT (human plasma [1]; Sodium bisulphite 1.0 mg/ml, solution D, Control 12.20): 22.63 s
PTT (human plasma [1]; Sodium bisulphite 5.0 mg/ml, solution D, Control 12.20): >150 s
PTT (human plasma [1]; chemical grade sodium bisulphite 0.01 mg/ml, Control 34.67): 32.80 s
PTT (human plasma [1]; chemical grade sodium bisulphite 0.05 mg/ml, Control 34.67): 33.77 s
PTT (human plasma [1]; chemical grade sodium bisulphite 0.1 mg/ml, Control 34.67): 34.40 s
PTT (human plasma [1]; chemical grade sodium bisulphite 0.5 mg/ml, Control 34.67): 44.87 s
PTT (human plasma [1]; chemical grade sodium bisulphite 1.0 mg/ml, Control 34.67): 78.46 s
PTT (human plasma [1]; chemical grade sodium bisulphite 5.0 mg/ml, Control 34.67): >150 s
effect on Factor IX (F IX; 0.5 mg per ml, human plasma): significant inhibitory effect
V IX (F IX; Sodium bisulphite 0.01 mg/ml): 60%
V IX (F IX; Sodium bisulphite 0.05 mg/ml): 52%
V IX (F IX; Sodium bisulphite 0.1 mg/ml): 56%
V IX (F IX; Sodium bisulphite 0.5 mg/ml): 4%
V IX (F IX; Sodium bisulphite 1.0 mg/ml): 3%
V IX (F IX; Sodium bisulphite 5.0 mg/ml): <1%
F IX (F IX; [4]): 49
F IX (F IX; [5]): 44
F IX (F IX; [6]): 40
F IX (F IX; [7]): 5
F IX (F IX; [8]): 1
F IX (F IX; [9]): <1
prolongation of PTT ([2]; 0.5 mg/ml, human, rabbit and rat plasma in vitro, dose-related): significantly prolong
PTT (seconds) Exp. 1 A ([2]; Test sequence A): 128.2 s
PTT (seconds) Exp. 2 A ([2]; Test sequence A): 121.9 s
PTT (seconds) Exp. 1 A ([2]; Test sequence B): 128.2 s
PTT (seconds) Exp. 2 A ([2]; Test sequence B): 162.6 s
effect on Factor XI (F XI; 0.5 mg per ml, human plasma): significant inhibitory effect
F XI (F XI; Sodium bisulphite 0.01 mg/ml, solution D): 98%
F XI (F XI; Sodium bisulphite 0.05 mg/ml, solution D): 81%
F XI (F XI; Sodium bisulphite 0.1 mg/ml, solution D): 58%
F XI (F XI; Sodium bisulphite 0.5 mg/ml, solution D): 27%
F XI (F XI; Sodium bisulphite 1.0 mg/ml, solution D): 4%
F XI (F XI; Sodium bisulphite 5.0 mg/ml, solution D): <1%
F XI (F XI; [4]): 83
F XI (F XI; [5]): 82
F XI (F XI; [6]): 55
F XI (F XI; [7]): 24
F XI (F XI; [8]): 2
F XI (F XI; [9]): <1
PT (human plasma [3]; Sodium bisulphite 0.01 mg/ml, solution D, Control 34.67): 33.37 s
PT (human plasma [3]; Sodium bisulphite 0.05 mg/ml, solution D, Control 34.67): 34.00 s
PT (human plasma [3]; Sodium bisulphite 0.1 mg/ml, solution D, Control 34.67): 34.85 s
PT (human plasma [3]; Sodium bisulphite 0.5 mg/ml, solution D, Control 34.67): 42.73 s
PT (human plasma [3]; Sodium bisulphite 1.0 mg/ml, solution D, Control 34.67): 85.33 s
PT (human plasma [3]; Sodium bisulphite 5.0 mg/ml, solution D, Control 34.67): >150 s
PT (human plasma [3]; chemical grade sodium bisulphite 0.01 mg/ml, Control 12.20): 12.30 s
PT (human plasma [3]; chemical grade sodium bisulphite 0.05 mg/ml, Control 12.20): 12.47 s
PT (human plasma [3]; chemical grade sodium bisulphite 0.1 mg/ml, Control 12.20): 12.90 s
PT (human plasma [3]; chemical grade sodium bisulphite 0.5 mg/ml, Control 12.20): 16.10 s
PT (human plasma [3]; chemical grade sodium bisulphite 1.0 mg/ml, Control 12.20): 22.38 s
PT (human plasma [3]; chemical grade sodium bisulphite 5.0 mg/ml, Control 12.20): >150 s
Fibrogen (Fibrinogen; Sodium bisulphite 0.01 mg/ml): 222 mg%
Fibrogen (Fibrinogen; Sodium bisulphite 0.05 mg/ml): 228 mg%
Fibrogen (Fibrinogen; Sodium bisulphite 0.1 mg/ml): 217 mg%
Fibrogen (Fibrinogen; Sodium bisulphite 0.5 mg/ml): 190 mg%
Fibrogen (Fibrinogen; Sodium bisulphite 1.0 mg/ml): 185 mg%
Fibrogen (Fibrinogen; Sodium bisulphite 5.0 mg/ml): 130 mg%
Fibrinogen (Fibrinogen; [4]): 228 mg%
Fibrinogen (Fibrinogen; [5]): 245 mg%
Fibrinogen (Fibrinogen; [6]): 218 mg%
Fibrinogen (Fibrinogen; [7]): 182 mg%
Fibrinogen (Fibrinogen; [8]): 184 mg%
Fibrinogen (Fibrinogen; [9]): 119 mg%
